# Experimental data taken from patent publication US20090175882A1, “METHODS AND COMPOSITIONS FOR TREATING HYPERALGESIA” (IRM LLC, priority 2006, published 2009).
# “Also recorded” adds a separate entry of the source.
# Tests used:
# [1] = tested on: CFA-induced mechanical hyperalgesia; experiment: CFA-induced mechanical hyperalgesia (Von Frey threshold); assay type: in vivo; details: injected into hindpaw 24 hours after CFA, mice
# Protocol: (§4) Red symbols represent responses from CFA-injected (A), or BK-injected (B) hindpaws while blue symbols represent responses from the other noninjected hindpaws of the same animals. Circles represent responses upon compound 18 treatment, whereas triangles represent responses upon vehicle treatments (A-C). Von Frey thresholds are measured and averaged. (***p<0.001, *p<0.05, two-tailed Student's T-test). […] Red symbols represent responses from CFA-injected hindpaws while blue symbols represent responses from the other non-injected hindpaws of the same animals. Number of flicks, licks, paw raises for 10 min at each time point are counted and averaged (n=8, *p<0.05, two-tailed Student's T-test).
# (§5) Behavioral assays: Mice (C57B16 Mus musculus) of 8-10 weeks in age and 150-250 g Sprague Dawley rats were used for all behavioral assays. Animals were acclimated for 20-60 min to their testing environment prior to all experiments. Students' T test was used for all statistical calculations. All error bars represent standard error of the mean (SEM). Thermal plates, Hargreaves method (Plantar Analgesia meter) and Von Frey apparatus (Dynamic Plantar Aesthesiometer) were from UGO Basile and Columbus instruments. […] Briefly, mice were acclimated for 60 min to their testing environment prior to all experiments. Baseline responses were measured first and then 10 nM BK was injected to the skin of left hindpaws. Von Frey threshold or paw withdrawal latency was measured at 5, 15 and 30 min post injection. 1 mM of compound 18 was sometimes coinjected to left hindpaws to test its analgesic effect. For CFA-induced hyperalgesia test, 5 μg CFA in 10 uL was injected into mice (Caterina et al., Science 288:306, 2000; and Cao et al., Nature 392:390, 1998) and 50 μg in 100 uL (1:1 emulsion of mineral oil and saline; Obata et al., J Clin Invest 115:2393, 2005) was injected into rats and in 24 hrs measurements were performed. Before the measurement, the animals were re-acclimated to the environment for 20-60 min. […]
# TRPA1 [2] = target: T1, TRPA1 (Homo sapiens, UniProt O75762); experiment: TRPA1 block, test not specified; details: summary statement
# Target sequence in this assay (O75762 whole entry, species assumed): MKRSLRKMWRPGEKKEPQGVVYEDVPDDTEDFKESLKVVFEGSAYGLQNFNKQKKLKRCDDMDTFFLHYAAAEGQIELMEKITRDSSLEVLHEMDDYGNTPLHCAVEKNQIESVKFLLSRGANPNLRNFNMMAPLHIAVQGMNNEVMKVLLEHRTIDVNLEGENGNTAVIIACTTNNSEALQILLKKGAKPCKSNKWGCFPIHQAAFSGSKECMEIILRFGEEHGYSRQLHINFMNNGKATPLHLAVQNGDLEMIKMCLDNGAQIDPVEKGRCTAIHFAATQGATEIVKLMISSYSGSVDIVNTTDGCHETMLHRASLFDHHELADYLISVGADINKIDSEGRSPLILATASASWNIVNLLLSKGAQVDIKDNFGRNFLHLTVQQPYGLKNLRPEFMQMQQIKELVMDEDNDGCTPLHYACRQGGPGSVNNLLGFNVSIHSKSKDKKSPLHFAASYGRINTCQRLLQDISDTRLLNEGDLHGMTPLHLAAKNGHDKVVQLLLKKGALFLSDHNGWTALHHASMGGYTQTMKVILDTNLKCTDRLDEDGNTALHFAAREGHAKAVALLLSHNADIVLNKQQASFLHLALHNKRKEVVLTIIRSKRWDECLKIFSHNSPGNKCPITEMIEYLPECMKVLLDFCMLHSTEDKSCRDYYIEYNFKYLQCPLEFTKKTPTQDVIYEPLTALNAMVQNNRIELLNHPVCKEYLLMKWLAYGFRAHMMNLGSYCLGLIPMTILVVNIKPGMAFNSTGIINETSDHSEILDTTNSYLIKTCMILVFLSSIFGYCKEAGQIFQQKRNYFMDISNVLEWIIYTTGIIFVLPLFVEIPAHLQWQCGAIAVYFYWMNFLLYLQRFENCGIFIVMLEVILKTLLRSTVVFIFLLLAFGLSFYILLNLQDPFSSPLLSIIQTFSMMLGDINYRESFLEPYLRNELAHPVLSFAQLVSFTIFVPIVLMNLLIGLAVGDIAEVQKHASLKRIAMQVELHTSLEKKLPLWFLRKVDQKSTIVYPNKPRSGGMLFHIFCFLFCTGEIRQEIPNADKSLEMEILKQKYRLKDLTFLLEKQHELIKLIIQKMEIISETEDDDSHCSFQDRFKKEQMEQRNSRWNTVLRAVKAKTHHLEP
# [3] = tested on: TRPV1, TRPV2, TRPV3, TRPV4, or TRPM8; experiment: Effect on other thermoTRPs (summary statement); assay type: cell-based
# Source text: TRPA1 inhibitors that can be employed in the practice of the present invention include compounds that interferes with the expression, modification, regulation or activation of TRPA1, or compounds that down-regulates one or more of the normal biological activities of TRPA1 (e.g., its ion channel). […] Various TRPA1-specific antagonists can be used in the instant invention. Some of these TRPA1-specific inhibitors are identified by the present inventors, as described in the Examples below. These compounds can be obtained commercially or are otherwise described in the art. One such compound is Compound 18, (Z)-4-(4-chlorophynyl)-3-methylbut-3-en-2-oxime. This compound can be obtained commercially from Maybridge (Cornwall, UK). Another example is Compound 40, N,N′-Bis-(2-hydroxybenzyl)-2,5-diamino-2,5-dimethylhexane, which has been described in U.S. Pat. No. 4,129,556. […] Thus, these two compounds can be readily used to treat or alleviate mechanical hyperalgesia as described in more detail below.
# [4] = tested on: bradykinin (BK)-induced heat hyperalgesia; experiment: Bradykinin-induced heat hyperalgesia; assay type: in vivo; details: mice
# Protocol: as §4, §5
# [5] = tested on: CFA-induced heat hyperalgesia; experiment: CFA-induced heat hyperalgesia; assay type: in vivo; details: mice
# Protocol: as §4, §5
# [6] = tested on: BK-induced nociceptive mechanical behaviours; experiment: Bradykinin-induced mechanical hyperalgesia (Von Frey threshold); assay type: in vivo; details: short term hyperalgesia model, 1 mM coinjected, mice
# Protocol: as §4
# Behavioral assays: Mice (C57B16 Mus musculus) of 8-10 weeks in age and 150-250 g Sprague Dawley rats were used for all behavioral assays. Animals were acclimated for 20-60 min to their testing environment prior to all experiments. Students' T test was used for all statistical calculations. All error bars represent standard error of the mean (SEM). Thermal plates, Hargreaves method (Plantar Analgesia meter) and Von Frey apparatus (Dynamic Plantar Aesthesiometer) were from UGO Basile and Columbus instruments. […] Baseline responses were measured first and then 10 nM BK was injected to the skin of left hindpaws. Von Frey threshold or paw withdrawal latency was measured at 5, 15 and 30 min post injection. […]
# TRPA1 [7] = target: T1, TRPA1; experiment: PatchXpress whole cell patch clamp, cinnamaldehyde-elicited current, CHO cells; assay type: cell-based; design: expressed in transfected cells; host or cells: CHO cell line; details: 10 μM FM1-43 with 100 μM cinnamaldehyde, −80 mV
# Protocol: (§1) FM1-43 experiments: The FM1-43 labeling of CHO cells transfected with mTRPA1 was performed as described (Meyers et al., J Neurosci 23:4054, 2003). Briefly, CHO cells were transfected using Fugene (Roche) with mTRPA1-pcDNA5. For mock transfection CHO cells were treated with Fugene, but without any plasmid DNA. 24 hrs after transfection the cells were incubated for 5 min with 200 μM cinnamaldehyde in physiological buffer (consisted of (in mM) 130 NaCl, 3 KCl, 2 MgCl2, 2 CaCl2, 10 HEPES, 10 glucose) at room temperature, followed by 3 min with 10 μM of FM1-43. The cells were then washed thoroughly and imaged. mTRPA1 and hTRPA1-expressing CHO cells were tested in whole cell patch clamp configuration using the PatchXpress (Axon Instruments) for the effect of the FM143 dye on TRPA1 activation. Cells were plated the day before testing and induced with 0.5 μg/ml tetracycline as previously described in Story et al., Cell 112:819, 2003. Immediately prior to testing, cells were trypsinized and resuspended in calcium-free DMEM media (Invitrogen). Recordings were performed in extracellular solution containing (in mM) 2.67 KCl, 1.47 KH2PO4, 0.5 MgCl2, 138 NaCl, 8 Na2HPO4, 5.6 glucose. The intracellular solution contained (in mM) 140 KCl, 10 HEPES, 20 glucose, 10 HEDTA and 1 μM buffered free Calcium. Holding currents at −80 mV were used for quantitative analysis of TRPA1 activation and inhibition. […]
# Target sequence in this assay (O75762 whole entry): as the sequence (O75762 whole entry, species assumed) above
# mTRPA1 = target: T2, mTRPA1 (Mus musculus, UniProt Q8BLA8); experiment: as above; assay type: cell-based
# T2 construct: expressed in transfected cells; host or cells: CHO cells (tetracycline-induced for PatchXpress; mTRPA1-pcDNA5 named for the transient labelling experiment)
# Source text: (§2) Mechanosensory neurons are often classified as high- or low-threshold, characterizing responses to pain and touch, respectively. We tested the mechanical threshold of TRPA1 by applying a wide range of negative pipette pressures (FIG. 1C). TRPA1-expressing CHO cells are activated at −90 mmHg or higher, consistent with native high-threshold mechanical receptors involved in sensing pain (Cho et al., J Neurosci 22:1238, 2002). […] Gadolinium (Gd^3+) is considered a blocker of native mechanically-gated ion channels in animal tissues (Martinac et al., Physiol Rev 81:685, 2001). […] FM1-43 is a styryl dye that specifically labels sensory cells by entering through open transduction channels. […] Furthermore, it was observed that 10 μM of FM1 -43 was able to block cinnamaldehyde-induced currents in TRPA1-expressing CHO cells (n=8).
# as §1, with “Recordings were performed in extracellular solution containing (in mM) 2.67 KCl, 1.47 KH2PO4, 0.5 MgCl2, 138 NaCl, 8 Na2HPO4, 5.6 glucose. The intracellular solution contained (in mM) 140 KCl, 10 HEPES, 20 glucose, 10 HEDTA and 1 μM buffered free Calcium.” left out
# mouse TRPA1 [8] = target: T3, mouse TRPA1 (Mus musculus, UniProt Q8BLA8); experiment: Whole-cell electrophysiology of TRPA1-expressing CHO cells (pressure, hyperosmolarity, cold); assay type: cell-based; details: for block of TRPA1 currents in response to hyperosmolarity: bath application, 2 min stimulus
# T3 construct: expressed in transfected cells; host or cells: CHO cells (tetracycline-induced for PatchXpress; mTRPA1-pcDNA5 named for the transient labelling experiment)
# Source text: We tested if TRPA1 is activated by mechanical forces. The electrophysiological behavior of thermoTRP-expressing Chinese Hamster Ovary (CHO) cells was investigated with two different assays of mechanical stress—pressure application using the recording pipette and changes in external osmolarity.
# as §2
# (§3) To ensure that the mechanical response we observe is not an artifact of heterologous expression system, we tested if native TRPA1-expressing neurons also respond to such stimuli. 5/6 cinnamaldehyde-sensitive (presumptive TRPA1-expressing) DRG neurons responded to an application of −200 mmHg of suction, while 0/21 cinnamaldehyde insensitive neurons responded (16 of 21 were capsaicin-sensitive) (FIG. 2B). Millimolar camphor was recently reported to inhibit basal currents and cold or agonist-activation of TRPA1.
# Mammalian cell electrophysiology: ThermoTRP-expressing CHO cells (rat TRPV1, rat TRPV2, mouse TRPV3, rat TRPV4, mouse TRPM8, and mouse TRPA1), control CHO cells, and cultured rat DRG neurons were prepared as described in Story et al., Cell 112:819, 2003; and Bandell et al., Neuron 41:849, 2004. Electrophysiological recordings were performed as described in Bandell et al., Neuron 41:849, 2004. Briefly, CHO cells were clamped at −60 mV and 0.8 second ramps from −80 mV to +80 mV were run every 4 seconds. Currents from DRG neurons were recorded at −60 mV and for their current-voltage curve, 300 ms voltage step at +20 mV was used 40 ms before 800 ms ramp from -80 mV to +80 mV to minimize contamination of voltage gated Na^+ or Ca^2+ current. The pipette solution for temperature and hyperosmotic experiments consisted of (in mM) 140 CsCl, 5 EGTA, 10 HEPES, 2 MgATP, 0.2 NaGTP, titrated to pH 7.4 with CsOH. The base external solution for these experiments consisted of (in mM) 140 NaCl, 5KCl, 10 HEPES, 2CaCl2, 1MgCl2, titrated to pH 7.4 with NaOH. Mannitol was used to adjust osmolarity for hypertonic solutions. For mouse TRPV3 and rat TRPV2, external calcium was replaced with 5 mM EGTA. Gluconate was substituted for chloride in (±)-pressure and hypotonic experiments to eliminate the potential for endogenous swelling-activated chloride currents. For these experiments, pipette solution (295 mOsm) consisted of (in mM) 125 Cs-gluconate, 15CsCl, 5 EGTA, 10 HEPES, 2 MgATP, 0.2NaGTP, titrated to pH 7.4 with CsOH. The external solution consisted of (in mM) 90 Na-gluconate, 10 NaCl, 5 K-gluconate, 10 HEPES, 2 CaCl2, 1 MgCl2, titrated to pH 7.4 with NaOH. Osmolarity was adjusted with mannitol to 220 mOsm (hypotonic) or 298 mOsm 15 (isotonic). (±)-Pressure was hydrostatically delivered by the recording pipette using syringe pumping (Hamill et al., Annu Rev Physiol 59:621, 1997) and monitored through Pressure Monitor (World Precision Instruments). Warner temperature controller (TC-324B and CL-100) was used for the heating or cooling the perfused bath solutions. […] The number of cells (n) tested with -100 mmHg to −300 mmHg, ˜+100 mmHg, 450 mOsm, and 220 mOsm for each cell type, respectively, are: CHO cells, n=7, 14, 5, 12; TRPV1, n=6, 5, 7, 5; TRPV2, n=4, 5, 3, 5; TRPV3, n=3, 2, 3, 0; TRPM8, n=12, 4, 10, 0. […]
# cultured rat DRG neurons = experiment: Current response of cultured DRG neurons to negative pressure; assay type: cell-based; details: 2 mM camphor, −150 mmHg
# Source text: as §3
# Mammalian cell electrophysiology: ThermoTRP-expressing CHO cells (rat TRPV1, rat TRPV2, mouse TRPV3, rat TRPV4, mouse TRPM8, and mouse TRPA1), control CHO cells, and cultured rat DRG neurons were prepared as described in Story et al., Cell 112:819, 2003; and Bandell et al., Neuron 41:849, 2004. Electrophysiological recordings were performed as described in Bandell et al., Neuron 41:849, 2004. […] Currents from DRG neurons were recorded at −60 mV and for their current-voltage curve, 300 ms voltage step at +20 mV was used 40 ms before 800 ms ramp from -80 mV to +80 mV to minimize contamination of voltage gated Na^+ or Ca^2+ current. […] (±)-Pressure was hydrostatically delivered by the recording pipette using syringe pumping (Hamill et al., Annu Rev Physiol 59:621, 1997) and monitored through Pressure Monitor (World Precision Instruments). […]
# mouse TRPA1 [9] = target: T3, mouse TRPA1; experiment: FLIPR calcium-influx assay, block of cinnamaldehyde activation, CHO cells; assay type: cell-based
# Protocol: Calcium influx was measured using a standard FLIPR assay, data points are the average of 4 wells (˜8,000 cells/well) and error bars show standard error. […] Data was generated using the FLIPR calcium-influx assay, n=3 wells (˜8,000 cells/well) and normalized to the maximal response. Bars show standard error and solid curves are hill equation fits from which EC50 values are derived.
# Using FLIPR calcium-influx assay, we screened 43,648 small molecules for their ability to block cinnamaldehyde-activation of human TRPA1 in a CHO cell line.
# FLIPR Screen: CHO cells expressing human TRPA1 were plated into 384 well plates at a concentration of ˜8,000 cells/well. Cells were transferred to phosphate-buffered saline (PBS) and loaded with the calcium sensitive dye FLUO-4 using the FLIPR Calcium 3 Assay Kit (Molecular Devices, Sunnyvale, Calif.) 1 hour prior to the assay. Assays were run using the FLIPR2 (Molecular Devices, Sunnyvale, Calif.). All compounds were diluted into PBS from a high concentration DMSO-based stock solution and added during data collection with the FLIPR2 internal pipette head. Final DMSO concentrations never exceeded 0.5%.
# T3 sequence (Q8BLA8 whole entry): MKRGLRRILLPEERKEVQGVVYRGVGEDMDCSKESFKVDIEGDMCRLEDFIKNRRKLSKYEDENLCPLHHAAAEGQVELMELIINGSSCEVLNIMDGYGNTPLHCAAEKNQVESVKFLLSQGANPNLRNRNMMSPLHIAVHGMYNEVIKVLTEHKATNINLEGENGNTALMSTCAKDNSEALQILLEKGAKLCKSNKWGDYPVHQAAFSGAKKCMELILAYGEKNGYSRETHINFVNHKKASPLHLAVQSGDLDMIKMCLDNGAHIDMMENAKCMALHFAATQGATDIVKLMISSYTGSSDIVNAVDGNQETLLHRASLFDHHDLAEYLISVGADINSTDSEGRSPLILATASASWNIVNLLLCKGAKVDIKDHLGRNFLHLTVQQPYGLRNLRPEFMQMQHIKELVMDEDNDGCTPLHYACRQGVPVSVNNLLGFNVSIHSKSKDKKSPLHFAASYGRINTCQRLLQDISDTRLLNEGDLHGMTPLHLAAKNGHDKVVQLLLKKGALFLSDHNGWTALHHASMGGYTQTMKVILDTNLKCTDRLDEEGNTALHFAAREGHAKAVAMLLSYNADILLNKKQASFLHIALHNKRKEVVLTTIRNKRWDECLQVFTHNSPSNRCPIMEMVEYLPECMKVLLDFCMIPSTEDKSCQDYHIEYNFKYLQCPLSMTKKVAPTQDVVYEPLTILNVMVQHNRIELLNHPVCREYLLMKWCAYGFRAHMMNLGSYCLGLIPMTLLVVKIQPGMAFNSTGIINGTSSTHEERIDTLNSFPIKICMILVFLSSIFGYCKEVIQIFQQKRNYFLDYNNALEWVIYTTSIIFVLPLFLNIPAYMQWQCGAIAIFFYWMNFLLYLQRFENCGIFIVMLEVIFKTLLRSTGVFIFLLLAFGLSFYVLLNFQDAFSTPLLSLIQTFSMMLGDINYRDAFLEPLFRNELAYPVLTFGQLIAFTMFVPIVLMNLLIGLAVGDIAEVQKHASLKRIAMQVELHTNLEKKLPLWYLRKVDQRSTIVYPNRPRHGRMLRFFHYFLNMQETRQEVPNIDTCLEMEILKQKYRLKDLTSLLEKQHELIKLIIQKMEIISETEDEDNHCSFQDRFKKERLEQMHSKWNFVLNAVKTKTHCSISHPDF
# T2 sequence (Q8BLA8 whole entry): as above
smiles,measurement,setting,value
"CC(C)(CCC(C)(C)NCc1ccccc1O)NCc1ccccc1O [Compound 40, N,N′-Bis-(2-hydroxybenzyl)-2,5-diamino-2,5-dimethylhexane]",CFA-induced mechanical hyperalgesia,[1],very similar results
same,inhibition of TRPA1 activation or function,TRPA1 [2],specifically inhibit TRPA1 activation or function; also recorded: blocks TRPA1
same,effect on activation or activities of the other thermoTRPs,[3],little or no effect
same,BK-induced heat hyperalgesia,[4],very similar results
same,CFA-induced heat hyperalgesia,[5],very similar results
same,BK-induced mechanical nociceptive behavior,[6],very similar results
CCCCN(CCCC)c1ccc(/C=C/c2cc[n+](CCC[N+](CC)(CC)CC)cc2)cc1.[Br-].[Br-] [FM1-43],cells in which an inhibition of the current was observed,TRPA1 [7],3/4
same,block of cinnamaldehyde-induced currents in TRPA1-expressing CHO cells,mTRPA1; 10 μM FM1-43,able to block
same,cells in which an inhibition of the current was observed,"mTRPA1; 10 μM FM1-43 with 100 μM cinnamaldehyde, −80 mV",7/8
same,"block in current, on average","mTRPA1; 10 μM FM1-43 with 100 μM cinnamaldehyde, average stated for mTRPA1 and hTRPA1 cells together",50%
"[Gd+3] [Gd3+, Gadolinium]",block of TRPA1 currents in response to negative pressure,"mouse TRPA1 [8]; 10 μM Gd3+, -100 mmHg",completely and reversibly blocked
same,block of TRPA1 currents in response to hyperosmolarity,"mouse TRPA1 [8]; 10 μM Gd3+, 450 mOsm",completely blocks
same,block of TRPA1 currents in response to hyperosmolarity,"mouse TRPA1 [8]; 10 μM Gd3+, 450 mOsm, listed as Gd^3+",completely and reversibly blocked
CC12CCC(CC1=O)C2(C)C (stereo not shown) [camphor],block of current activation of TRPA1 upon (−) pressure in CHO cells,"mouse TRPA1 [8]; 2 mM camphor, −100 mmHg",completely block
same,block of current response of DRG neurons to (−) pressure,cultured rat DRG neurons,completely blocks; also recorded: fully inhibited
O=CC=Cc1ccccc1 [cinnamaldehyde],EC50,mouse TRPA1 [9]; control (no compound 18),50 µM
same,EC50,mouse TRPA1 [9]; with 25 μM compound 18,220 µM
N.N.N.N.N.N.N.N.N.N.N.N.N.N.[Cl-].[Cl-].[Cl-].[Cl-].[Cl-].[Cl-].[O-2].[O-2].[Ru+3].[Ru+3].[Ru+4] [ruthenium red],block of mechanosensitive TRPA1 currents upon hyperosmolarity,"mouse TRPA1 [8]; 5 μM ruthenium red, 450 mOsm",completely blocked
same,block of mechanosensitive TRPA1 currents upon (−) pressure,"mouse TRPA1 [8]; 5 μM ruthenium red, -100 mmHg",completely blocked
